Test results published in patent publication US20090318396A1, “CORTICOSTEROID LINKED BETA-AGONIST COMPOUNDS FOR USE IN THERAPY” (priority 2008, published 2009).

Columns and labels:
[1] = Stability of steroid C-21 esters, carbonates and carbamates in rat lung homogenate; settings: for Mean [Parent] (nM) at 2 hrs, 37° C.: parent compound; for Mean % compound remaining at 2 hrs, 37° C.: 900 nM, n=3
Protocol: Lungs from Fischer 344 rats were obtained fresh by overnight delivery at 4° C. from BioReclamation Inc. (Hicksville, N.Y.). Lungs were weighed and homogenized in a 1:3 w/v ratio with sterile phosphate buffered saline (PBS, 10 mM, pH 7.4) in glass vials on ice. After centrifugation at 3,000×g for 10 min at 4° C. the supernatant was decanted into sterile conical tubes and placed on ice. The total protein content of the supernatant was determined by the bicinchoninic acid (BCA) method (Pierce Biotechnology, Rockford, Ill.), using bovine serum albumin (BSA) as the standard. Lung homogenates were prepared to a final concentration of 1 mg total protein/mL in 10 mM PBS, pH 7.4.
Heat-inactivation was achieved by incubation at 80° C. for 30 min, after which the homogenate was allowed to cool to room temperature, stored overnight at 4° C. The homogenate was used for the assay and standard curve preparations. Before use, each homogenate preparation was equilibrated for 15 min in a 37° C. water bath. […] DMSO (2.7 uL) added to 3 mL of temperature-equilibrated homogenate served as a control. Aliquots (100 uL) of homogenate+compound were added to 400 μL quenching solution consisting of 100% HPLC-grade acetonitrile+500 ng/mL glyburide for the zero time point (n=3 for each time point).
The glyburide served as an internal LC/MS/MS standard. The remainder of each drug+homogenate solution was aliquoted into a 96-well tissue culture plates. After an additional 30 min and 120 min incubation at 37° C., 100 μL aliquots were added to 400 μL quenching solution. Denatured proteins in the quenching solution were separated by centrifugation at 3000×g for 2 min at 4° C., and 160 μL of the supernatants were transferred to new 96-well plate for analysis by LC/MS/MS. Collection plates were covered with plastic film and were kept on ice. For storage, covered plates were and kept stored at −80° C. until further use.
An aliquot of 50 μL of each sample was diluted with 50 μL of water containing internal standard at 4° C. The diluted samples were then centrifuged for 20 minutes at 3000 rpm at 4° C. An aliquot of 20 μL of the solution was injected into the TSQ Ultra Quantum.
LC/MS/MS system. The compounds were separated by HPLC using a HyPurity C18 HPLC column (30×2.1 mm, 5μ) from ThermoHypersil. A Multiplex LX-2 HPLC system (Cohesive Technologies, Franklin, Mass.) with two identical Agilent 1100 series binary pumps (P/N G1312A) were used for elution and separation. Samples were maintained at 4° C. in an HTS Pal autosampler (LEAP Technologies, Carrboro, N.C.) in order to reduce any potential spontaneous hydrolysis of the compounds before injection onto the HPLC. The analytes were eluted using the following mobile phases; Mobile phase A contained 1% acetonitrile in 10 mM ammonium formate aqueous solution with 1% formic acid. Mobile phase B contained 80% acetonitrile in 10 mM ammonium formate with 1% formic acid. The HPLC elution program used to elute the analytes was as follows:
The samples were further analyzed by tandem mass spectrometry using a TSQ Quantum Ultra triple quadrupole mass spectrometer (Thermo Finnigan, San Jose, Calif.) using a selective reaction monitoring (SRM) scan type. The mass spectrometry parameters used were as follows:
Nine-point standard curves for each test compound were prepared and analyzed in heat-inactivated lung homogenate. […] The data expressed in Table 2 represent the mean (n=3) percent remaining compound in both types of homogenate at 2 hours, 37° C.

[2] = Drug levels in plasma, BALF and lung after IT administration in the rat; settings: for Plasma Conc: analyte after IT administration of Example 83, 1 mg/kg
Protocol: Compounds of Examples 52 and 83 were formulated for intratracheal (IT) dosing in 10% EtOH, 90% Sterile Water, and dosed in male Sprague-Dawley rats at 3 mg/kg (Example 52) and 1 mg/kg (Example 83). Each dosing group consisted of 3 male, naïve purebred Sprague-Dawley rats. At dosing, the animals weighed ˜0.30 kg. The animals were fasted overnight prior to dose administration and up to 2 hr after dosing. The compounds were administered IT using a Penn Century Microsprayer (Model 1A-1B).
Blood samples were collected at 0.5, 2, and 4 hours post-dose. Each blood sample (0.5-0.6 mL per sample) was collected via the orbital sinus (following anesthesia for BAL procedure) into tubes containing EDTA anti-coagulant into containers surrounded by dry ice at 0.5, 2 and 4 hr (mean, n=6). Blood samples were stored at −20±5° C. until shipped for analysis.
The animals were anesthetized with an intramuscular (IM) injection of a ketamine/xylazine/acepromazine (80/10/2 mg/kg) cocktail at a dose volume of 1.1 mL/kg. A cannula (modified Bard® infant feeding tube) was inserted into the trachea. Warmed sterile saline was injected into the lungs. The lungs were gently massaged by palpation of the chest for approximately 45 seconds. The fluid (BALF) was recovered and placed on ice. The procedure was repeated two more times, and all three BALF samples pooled. The fluid was centrifuged under refrigerated conditions at 350 g for 10 minutes. The supernatant and cell pellet were collected and stored at approximately −70° C. until shipped for analysis.
Immediately following each BAL procedure, the lungs from each animal were removed, blotted dry, weighed, and stored frozen at −70° C. until shipped for analysis.
An LC/MS/MS method was used to measure the concentration of compound in plasma.
Add 3×w/v of 1×PBS buffer (90:10-PBS:ACN) to each lung tissue. Homogenize the sample w/Polytron (PT1200) and take 50 uL of supernatant and inject to LC/MSMS.
An aliquot of 50 μL of each plasma sample was treated with 100 mL of acetonitrile (ACN) containing internal standard. After the protein precipitation, an aliquot of 100 μL of the supernatant was transferred to a clean 96-well plate and mixed with 100 μL of water. An aliquot of 30 μL of the above solution was injected to the TSQ Ultra Quantum LC/MS/MS system.
A HyPurity C18 HPLC column (30×2.1 mm, 5μ) from ThermoHypersil (Part #: 22105-032130) was used. Mobile phase A contained 1% acetonitrile in 10 mM ammonium formate aqueous solution with 1% formic acid. Mobile phase B contained 80% acetonitrile in 10 mM ammonium formate with 1% formic acid. An Agilent 1100 series binary pump (P/N G1312A Bin Pump) was used for elution and separation. HTS Pal autosampler from LEAP Technologies, Carrboro, N.C. was used.
TSQ Quantum Ultra triple quadrupole mass spectrometer from Thermo Finnigan, San Jose, Calif. was used in selective reaction monitoring (SRM) operation mode, Tune file:

[3] = system: Ascaris suum antigen-induced bronchoconstriction and airway hyperreactivity; test: Ascaris suum-induced pulmonary responses in sheep; assay type: in vivo; settings: n=4
Protocol: One breath unit is defined as one breath of a 1% w/v carbachol solution. Test article was administered either by a pre-dosing or duration of action protocol. In the pre-dosing regimen, animals were dosed once daily for four days, with the last dose administered 1 hr before antigen. In the duration of action regimen, animals were dosed once daily for four days, with the last dose administered 24 hours before antigen. Test article, Ascaris antigen, and carbachol were administered by nebulized aerosol to intubated sheep.

[4] = system: tobacco-smoke-induced airway inflammation; test: Tobacco smoke model of airway inflammation in mice; assay type: in vivo, female C3H mice; settings: 0.57 mg/kg i.t.; mean ± s.e.m.
Protocol: Vehicle and test articles are delivered by intratracheal instillation in 10% ethanol water to animals anesthetized with 3-5% isoflurane (n=8 animals per test article group). All compounds will be delivered on a daily (5 days per week) schedule for 3 weeks during the smoke exposures. Mice were exposed to cigarette smoke for 6 hours per day, 5 days per week for 3 weeks, in H1000 or H2000 chambers. Type 2R4F research cigarettes (Kentucky Tobacco Research and Development Center) were used in the study. Total particulate material (TPM) exposure was kept at […] for the first week to allow animals to reduce adverse effects during adaptation to smoke exposure. TPM exposure was maintained between 100 and 250 mg TPM/m^3 during the remainder of the study. After 3 weeks, animals were euthanized and bronchoalveolar lavage fluid was obtained for cell differentials and cytokine analysis by Luminex multiplex immunoassay.

[5] = system: ragweed-induced bronchoconstriction; test: Ragweed-induced bronchoconstriction in dogs; assay type: in vivo, beagle dogs; settings: mean ± s.e.m.
Protocol: The compound of Example 52 was assesed for bronchodilator activity in a ragweed-induced bronchoconstriction model in beagle dogs. Dogs were mechanically ventilated during each experiment. Airflow and tidal volume were measured using a differential pressure transducer located in front of the endotracheal tube. An esophageal balloon catheter placed in the esophagus was used to determine transpulmonary pressure. Pulmonary resistance and dynamic lung compliance were calculated from the simultaneous measurement of transpulmonary pressure and respiratory flow. The canine exposure system was designed to expose an anesthetized animal via an intubation tube. Dogs were administered vehicle or test article by inhalation 30 minutes before ragweed antigen exposure (n=4). Dogs were challenged with ragweed antigen (ragweed short, Ambrosia artemisifolia, Greer, Lenoir, N.C.) by inhalation (5 breaths). Immediately following ragweed challenge, changes in pulmonary resistance and compliance were measured for up to 30 minutes.

[6] = Inactive (heat-inactivated) rat lung homogenate

Structure (SMILES)	Mean [Parent] (nM) at 2 hrs, 37° C. ([1]; Active homogenate)	Mean % compound remaining at 2 hrs, 37° C. ([1]; Active rat lung homogenate)	Mean % compound remaining at 2 hrs, 37° C. [1, 6]	Mean [Parent] (nM) at 2 hrs, 37° C. ([1]; Inactive homogenate)	further results
CN(C)CCNC(=O)OCC(=O)[C@@]12O[C@H](C3CCCCC3)O[C@@H]1C[C@H]1[C@@H]3CCC4=CC(=O)C=C[C@]4(C)[C@H]3[C@@H](O)C[C@@]12C [Example 39, 2-Dimethylaminoethylcarbamic acid [[11β,16α]-[[((R)-cyclohexylmethylene)bis(oxy)]-11-hydroxypregna-1,4-diene-3,20-dion-21-yl]]ester]	186 nM	92%	78%	162 nM	–
CN(C)CCN(C)C(=O)OCC(=O)[C@@]12O[C@H](C3CCCCC3)O[C@@H]1C[C@H]1[C@@H]3CCC4=CC(=O)C=C[C@]4(C)[C@H]3[C@@H](O)C[C@@]12C [Example 40, 2-Dimethylaminoethyl(methyl)carbamic acid [[11β,16α]-[[((R) -cyclohexylmethylene)bis(oxy)]-11-hydroxypregna-1,4-diene-3,20-dion-21-yl]]ester]	222 nM	83%	78%	167 nM	–
CN1CCN(C(=O)OCC(=O)[C@@]23O[C@H](C4CCCCC4)O[C@@H]2C[C@H]2[C@@H]4CCC5=CC(=O)C=C[C@]5(C)[C@H]4[C@@H](O)C[C@@]23C)CC1 [Example 41, 4-Methylpiperazinecarboxylic acid [[11β,16α]-[[((R)-cyclohexylmethylene)bis(oxy)]-11-hydroxypregna-1,4-diene-3,20-dion-21-yl]]ester]	170 nM	68%	78%	172 nM	–
CC(C)[C@@H](N)C(=O)OCC(=O)[C@@]12O[C@H](C3CCCCC3)O[C@@H]1C[C@H]1[C@@H]3CCC4=CC(=O)C=C[C@]4(C)[C@H]3[C@@H](O)C[C@@]12C [Example 50, Valine [[11β,16α]-[16,17-((R)-cyclohexylmethylene)bis(oxy)]-11-hydroxypregna-1,4-diene-3,20-dion-21-yl]ester]	219 nM	45%	25%	50 nM	–
CC(C)[C@@H](NC(=O)c1cccnc1)C(=O)OCC(=O)[C@@]12O[C@H](C3CCCCC3)O[C@@H]1C[C@H]1[C@@H]3CCC4=CC(=O)C=C[C@]4(C)[C@H]3[C@@H](O)C[C@@]12C [Example 51, N-(Pyridin-3-carbonyl)valine [[11β,16α]-[16,17-((R)-cyclohexylmethylene)bis(oxy)]-11-hydroxypregna-1,4-diene-3,20-dion-21-yl]ester]	176 nM	86%	85%	169 nM	–
CN(C)CC(=O)OCC(=O)[C@@]12O[C@H](C3CCCCC3)O[C@@H]1C[C@H]1[C@@H]3CCC4=CC(=O)C=C[C@]4(C)[C@H]3[C@@H](O)C[C@@]12C [Example 75, N,N-Dimethylglycine [[11β,16α]-[16,17-((R)-cyclohexylmethlylene)bis(oxy)]-11-hydroxypregna-1,4-diene-3,20-dion-21-yl]ester]	1 nM	1%	55%	101 nM	–
C[C@]12C=CC(=O)C=C1CC[C@@H]1[C@@H]2[C@@H](O)C[C@@]2(C)[C@H]1C[C@H]1O[C@@H](C3CCCCC3)O[C@]12C(=O)COC(=O)Cc1cccnc1 [Example 76, 3-Pyridineacetic acid [[11β,16α]-[16,17-((R)-cyclohexylmethylene)bis(oxy)]-11-hydroxypregna-1,4-diene-3,20-dion-21-yl]ester]	4 nM	2%	83%	142 nM	–
CC(C)[C@@H](C(=O)OCC(=O)[C@@]12O[C@H](C3CCCCC3)O[C@@H]1C[C@H]1[C@@H]3CCC4=CC(=O)C=C[C@]4(C)[C@H]3[C@@H](O)C[C@@]12C)N(C)C [Example 79, N,N-dimethylvaline [[11β,16α]-[16,17-((R)-cyclohexylmethylene)bis(oxy)]-11-hydroxypregna-1,4-diene-3,20-dion-21-yl]ester]	149 nM	85%	61%	88 nM	–
CC[N+](CC)(CC(=O)OCC(=O)[C@@]12O[C@H](C3CCCCC3)O[C@@H]1C[C@H]1[C@@H]3CCC4=CC(=O)C=C[C@]4(C)[C@H]3[C@@H](O)C[C@@]12C)Cc1cc([C@@H](O)CNCCCCCCOCCCCc2ccccc2)ccc1OP(=O)(O)O.[Cl-] [Example 83, [5-[1-(R)-hydroxy-2-[6-(4-phenylbutoxy)hexylamino]ethyl]-2-phosphonooxybenzyl]-(diethyl)-[[11β,16α]-[16,17-((R-cyclohexylmethylene)bis(oxy)]-11-hydroxypregna-1,4-diene-3,20-dion-21-oxy]-carbonylmethyl]ammonium chloride]	–	–	–	–	Metabolism in the lung following IT administration ([2]; IT): metabolized to Salmeterol and Desisobutyryl Ciclesonide in the lung
OCc1cc(C(O)CNCCCCCCOCCCCc2ccccc2)ccc1O (stereo not shown) [Salmeterol Xinafoate, salmeterol xinafoate]	–	–	–	–	Bronchoconstriction, Lung Resistance (% Increase) ([3]; Duration of action regimen (last dose 24 hours before antigen), Post-Ascaris, Example 52 4.7 mg, ciclesonide 2.2 mg, salmeterol xinafoate 2.5 mg): 370 % Increase; Bronchoconstriction, Lung Resistance (% Increase) ([3]; Duration of action regimen, 1 hour): 213 % Increase; Bronchoconstriction, Lung Resistance (% Increase) ([3]; Duration of action regimen, 2 hours): 114 % Increase; Bronchoconstriction, Lung Resistance (% Increase) ([3]; Duration of action regimen, 3 hours): 64 % Increase; Bronchoconstriction, Lung Resistance (% Increase) ([3]; Duration of action regimen, 4 hours): 25 % Increase; Bronchoconstriction, Lung Resistance (% Increase) ([3]; Duration of action regimen, 5 hours): 54 % Increase; Bronchoconstriction, Lung Resistance (% Increase) ([3]; Duration of action regimen, 6 hours): 86 % Increase; Bronchoconstriction, Lung Resistance (% Increase) ([3]; Duration of action regimen, 6.5 hours): 85 % Increase; Bronchoconstriction, Lung Resistance (% Increase) ([3]; Duration of action regimen, 7 hours): 83 % Increase; Bronchoconstriction, Lung Resistance (% Increase) ([3]; Duration of action regimen, 7.5 hours): 76 % Increase; Bronchoconstriction, Lung Resistance (% Increase) ([3]; Duration of action regimen, 8 hours): 72 % Increase; Hyperreactivity PC400 ([3]; Duration of action regimen, Baseline, Example 52 4.7 mg, ciclesonide 2.2 mg, salmeterol xinafoate 2.5 mg): 29.5 carbachol breath units; Hyperreactivity PC400 ([3]; Duration of action regimen, Post-Antigen): 22.8 carbachol breath units; IL-1α [4]: 4.22 ± 0.73 pg/mL; MIP-1α [4]: 6.09 ± 1.38 pg/mL; Neutrophils [4]: 10.9 ± 2.5 ×10^4/ml; Pulmonary Resistance (% of Baseline) ([5]; 3 μg/kg by inhalation): 265.6 ± 38.8 % of Baseline; Pulmonary Resistance (% of Baseline) ([5]; 10 μg/kg by inhalation 30 minutes before ragweed, n=4): 177.8 ± 14.4 % of Baseline
C[C@]12C=CC(=O)C=C1CC[C@@H]1[C@@H]2[C@@H](O)C[C@@]2(C)[C@H]1C[C@H]1O[C@@H](C3CCCCC3)O[C@]12C(=O)CO [des-ciclesonide, desisobutyryl ciclesonide, reference compound]	119 nM	98%	71%	84 nM	Plasma Conc ([2]; 0.5 hr): BLQ; Plasma Conc ([2]; 2.0 hr): BLQ; Plasma Conc ([2]; 4.0 hr): BLQ
